# Measured values: patent US20250074911A1, “MACROCYCLIC BTK INHIBITORS” (Crossfire Oncology Holding B.V., priority 2021, published 2025)
# Key:
# [1] = target: full-length wt-BTK enzyme (Homo sapiens (Human), UniProt Q06187); experiment: Biochemical kinase assay wt-BTK (IMAP)
# How it was run: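 Compound and enzyme (final 1.2 nM) were pre-incubated for 1 h at RT, after which the reaction was started with 4 μM ATP plus 50 nM fluorescein-MBP substrate peptide. After 2 h in the dark, the IMAP progressive binding reagent stopped the reaction, and phosphorylation was read by fluorescence polarization.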
# [2] = target: full-length BTK C481S enzyme (Homo sapiens (Human), UniProt Q06187, C481S); experiment: Biochemical kinase assay BTK C481S (IMAP)
# How it was run: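 IC50 values come from IMAP fluorescence polarization after quenching with progressive binding solution. The reaction ran 2 h at room temperature in the dark with 1.2 nM full-length C481S enzyme, 7 μM ATP and 50 nM fluorescein-labelled MBP-derived peptide, following a 1 h dark pre-incubation of compound with enzyme.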
# [3] = test system: wt-REC-1 mantle cell lymphoma cells; experiment: Cell proliferation assay wt-REC-1 (ATPlite, 72 hours); assay type: cell-based; details: 72 h; read-out: IC50 wt-REC-1
# How it was run: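 Luminescent viability read over 72 h, start-of-incubation signal recorded separately to separate growth from cell death. Percentage growth referenced to compound-free 0.3% DMSO wells; IC50 from 4-parameter logistic fit.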
# REC-1 T474I cell lines = experiment: Cell proliferation assay REC-1 BTK T474I knock-in cells (ATPlite, 72 hours); assay type: cell-based; details: Homo sapiens, Rec1; 72 hours; read-out: IC50 REC-1 T474I
# How it was run: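 REC-1 cells carrying CRISPR knock-in mutant BTK, single-cell cloned and sequence-confirmed, were exposed to compound for 72 h and read by ATPlite luminescence. Percentage growth was calculated against the signal at the start of incubation and against untreated 0.3% DMSO wells as maximum growth.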
# wt-BTK = wt-BTK (Homo sapiens (Human), UniProt Q06187); experiment: Binding kinetics measurements (Surface Plasmon Resonance) on wt-BTK; details: for Kd: binding affinity by Surface Plasmon Resonance (SPR); for Tau (h) wt-BTK (Act): target residence time, SPR
# How it was run: (§1)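 Protein was immobilized on a streptavidin surface at 4° C, then equilibrated in running buffer containing 1% DMSO at 30 μl/min for at least 30 min. Compounds were injected five times at increasing concentrations (3.16-316 nM) at 22° C. Induced-fit binders were fitted with a two-state reaction model.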
# BTK C481S = BTK C481S (Homo sapiens (Human), UniProt Q06187, C481S); experiment: Binding kinetics measurements (Surface Plasmon Resonance) on BTK C481S; details: for Kd: binding affinity by Surface Plasmon Resonance (SPR); for Tau (h) BTK C418S (Act): target residence time for BTK C481S, SPR
# How it was run: as §1
# BTK T316A = BTK T316A (Homo sapiens (Human), UniProt Q06187, T316A); experiment: Binding kinetics measurements (Surface Plasmon Resonance) on BTK T316A; details: for Kd: binding affinity by Surface Plasmon Resonance (SPR); for Tau (h) BTK T316A (Act): target residence time, SPR
# Protocol: Binding kinetics measurements on wt-BTK, BTK […], BTK […], BTK […] and BTK […] (Surface Plasmon Resonance) Streptavidin-coated chips (Cat. No. BR100531), disposables and maintenance kits for Biacore were purchased from Cytiva (Eindhoven, The Netherlands). […] Remaining streptavidin was blocked with biocytin. Immobilization was performed at 4° C. Subsequent assay steps were conducted at 22° C. After changing buffer to Biacore buffer with 1% (v/v) dimethylsulfoxide (DMSO), a pre-run was performed for a period of at least 30 min at a flow rate of 30 μl/min to obtain a stable surface. The kinetic constants of the compounds were determined with single cycle kinetics with five consecutive injections with an increasing compound concentration with ranges of 3.16-316 nM. […] To circumvent problems of mass transport limitation, a flow rate of 30 μl/min was used. A blank run with the same conditions was performed before the compound was injected. The SPR sensorgrams were analyzed with Biacore Evaluation Software by using a method of double referencing. First the reference channel was subtracted from the channel containing immobilized protein. Subsequently, the reference curve obtained with buffer injections was subtracted. […] Compounds that bound according to an induced fit model were fitted with a two-state reaction model. The kinetic constants (ka, […], KD) of duplicates were geometrically averaged. […] Target residence for an induced fit model was calculated as described (Tummino and Copeland, 2008).
# BTK T474I = BTK T474I (Homo sapiens (Human), UniProt Q06187, T474I); experiment: Binding kinetics measurements (Surface Plasmon Resonance) on BTK T474I; details: for Kd: binding affinity by Surface Plasmon Resonance (SPR); for Tau (h) BTK T474I (Act): target residence time, SPR
# How it was run: as §1
# BTK T474S = BTK T474S (Homo sapiens (Human), UniProt Q06187, T474S); experiment: Binding kinetics measurements (Surface Plasmon Resonance) on BTK T474S; details: for residence time: SPR binding kinetics, BTK T474S, read-out: Tau (h) BTK T474S (Act), target residence time (converted); for Kd: binding affinity by Surface Plasmon Resonance (SPR)
# How it was run: as §1
# [4] = test system: wt-TMD8 diffuse large B-cell lymphoma cells; experiment: Cell proliferation assay wt-TMD8 (ATPlite, 120 hours); assay type: cell-based; details: B-cell; wt-TMD8 cells, 120 hours, ATPlite; read-out: IC50 wt-TMD8
# How it was run: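 Readout is percentage growth from ATPlite 1Step luminescence after 5 days (120 h) compound treatment of wt-TMD8 lymphoma cells (1600/well, RPMI-1640 + 10% FBS). Time-zero signal separates growth inhibition from cell kill; 0.3% DMSO wells without compound define maximal growth.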
# Chain of full-length wt-BTK enzyme (Q06187 whole entry): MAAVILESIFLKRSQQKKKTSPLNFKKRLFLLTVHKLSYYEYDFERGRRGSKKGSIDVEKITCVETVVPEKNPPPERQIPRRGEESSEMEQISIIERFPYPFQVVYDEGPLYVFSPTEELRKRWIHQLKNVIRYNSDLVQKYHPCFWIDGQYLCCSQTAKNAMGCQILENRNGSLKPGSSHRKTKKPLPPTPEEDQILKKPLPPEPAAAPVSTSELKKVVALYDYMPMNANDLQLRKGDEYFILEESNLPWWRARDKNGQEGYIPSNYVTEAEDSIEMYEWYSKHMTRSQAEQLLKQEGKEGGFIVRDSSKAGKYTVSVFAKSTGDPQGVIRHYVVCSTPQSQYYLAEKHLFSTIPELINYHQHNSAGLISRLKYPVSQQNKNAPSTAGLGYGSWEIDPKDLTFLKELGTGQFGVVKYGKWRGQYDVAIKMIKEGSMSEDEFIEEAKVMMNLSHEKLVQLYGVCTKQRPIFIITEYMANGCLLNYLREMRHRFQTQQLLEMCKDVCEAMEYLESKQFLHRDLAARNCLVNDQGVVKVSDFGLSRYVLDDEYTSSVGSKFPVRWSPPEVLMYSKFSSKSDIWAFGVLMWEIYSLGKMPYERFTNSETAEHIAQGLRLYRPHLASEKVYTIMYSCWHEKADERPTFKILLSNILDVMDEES
# Chain of wt-BTK (Q06187 whole entry): as above
# Chain of BTK C481S (Q06187 whole entry C481S): as the sequence (Q06187 whole entry) above, with C481S counted along it
# Chain of full-length BTK C481S enzyme (Q06187 whole entry C481S): as the sequence (Q06187 whole entry) above, with C481S counted along it
# Chain of BTK T474S (Q06187 whole entry T474S): as the sequence (Q06187 whole entry) above, with T474S counted along it
# Chain of BTK T474I (Q06187 whole entry T474I): as the sequence (Q06187 whole entry) above, with T474I counted along it
# Chain of BTK T316A (Q06187 whole entry T316A): as the sequence (Q06187 whole entry) above, with T316A counted along it
Compound,IC50 [1] [nM],IC50 [2] [nM],IC50 [3] [nM],IC50 (REC-1 T474I cell lines) [nM],Kd (wt-BTK) [nM],Tau (h) wt-BTK (Act) (wt-BTK) [h],Kd (BTK C481S) [nM],Tau (h) BTK C418S (Act) (BTK C481S) [h],Kd (BTK T316A) [nM],Tau (h) BTK T316A (Act) (BTK T316A) [h],Kd (BTK T474I) [nM],Tau (h) BTK T474I (Act) (BTK T474I) [h],residence time (BTK T474S) [h],Kd (BTK T474S) [nM],IC50 [4] [nM]
Nc1ncc2c3c1c(-c1ccc(C(=O)Nc4cc(C(F)(F)F)ccn4)cc1)nn3[C@@H]1CCC[C@H](C1)NC(=O)CCOCC/C=C/2 [Example 26],< 5,< 5,< 100,< 100,< 5,5.89,< 5,6.65,< 5,3.22,< 2,5.95,1.79,< 3,< 100
Nc1ncc2c3c1c(-c1ccc(C(=O)Nc4cc(C(F)(F)F)ccn4)cc1)nn3[C@@H]1CCC[C@H](C1)NC(=O)CCCOC/C=C/2 [Example 27],< 5,< 5,< 100,< 100,< 5,5.05,< 5,2.04,< 5,3.37,< 2,2.55,4.09,< 3,< 100
C[C@H]1OC/C=C/c2cnc(N)c3c(-c4ccc(C(=O)Nc5cc(C(F)(F)F)ccn5)cc4)nn(c23)[C@@H]2CCC[C@H](C2)NC1=O [Example 28],< 5,< 5,< 100,100 to 500,< 5,4.52,< 5,4.03,< 5,1.43,< 2,0.73,3.77,< 3,< 100
Nc1ncc2c3c1c(-c1ccc(C(=O)Nc4cc(C(F)(F)F)ccn4)cc1)nn3[C@@H]1CCC[C@H](C1)NC(=O)CCNCC/C=C/2 [Example 33],< 5,< 5,< 100,< 100,< 5,3.46,< 5,9.96,< 5,3.62,< 2,1.26,5.78,< 3,< 100
Nc1ncc2c3c1c(-c1ccc(C(=O)Nc4cc(C(F)(F)F)ccn4)cc1)nn3[C@@H]1CCC[C@H](C1)NC(=O)C1CCN1CC/C=C/2 (some centres unmarked) [Example 34],< 5,< 5,< 100,< 100,< 5,6.06,< 5,9.06,< 5,5.41,< 2,1.70,8.1,< 3,< 100
Nc1ncc2c3c1c(-c1ccc(C(=O)Nc4cc(C(F)(F)F)ccn4)cc1)nn3[C@@H]1CCC[C@H](C1)NC(=O)CNC[C@@H](O)/C=C/2 [Example 39],< 5,< 5,100 to 1000,500 to 10000,< 5,4.22,< 5,2.54,< 5,1.25,< 2,–,5.96,< 3,< 100
